Source: PubChem BioAssay (NCI)
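All cell lines were grown in 96-well plates and treated with compound for 48 hours. TGI marks complete inhibition of growth.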

What was measured:
Experiment in all cases: NCI tumour cell line growth inhibition, 48 h
T-47D breast = test system: T-47D breast
ACHN renal = test system: ACHN renal
DU-145 prostate = test system: DU-145 prostate
MDA-N = test system: MDA-N
SF-539 CNS = test system: SF-539 CNS
MDA-MB-231 breast = test system: MDA-MB-231 breast
HCC-2998 colon = test system: HCC-2998 colon
SNB-19 CNS = test system: SNB-19 CNS
SK-MEL-5 melanoma = test system: SK-MEL-5 melanoma

With `NCCCN1CCN(CCCNc2ccc3ncn4c5ccccc5c(=O)c2c34)CC1` the TGI (T-47D breast) was 12.1 µM, the TGI (ACHN renal) was 13.9 µM and the TGI (DU-145 prostate) was 8.2 µM. The TGI (MDA-N) was 4.88 µM, the TGI (SF-539 CNS) was 7.19 µM and the TGI (MDA-MB-231 breast) was 3.71 µM. The TGI (HCC-2998 colon) was 2.93 µM, the TGI (SNB-19 CNS) was 4.46 µM and the TGI (SK-MEL-5 melanoma) was 4.38 µM.

`C1CN(C23OC4(N5CCOCC5)C5C6CC(C7C6C4C72)C53)CCO1` (stereo unspecified) gave a TGI (T-47D breast) greater than 100 µM, a TGI (ACHN renal) greater than 31.6 µM and a TGI (DU-145 prostate) greater than 100 µM. For the same molecule, the TGI (MDA-N) was greater than 100 µM, the TGI (SF-539 CNS) was greater than 100 µM and the TGI (MDA-MB-231 breast) was greater than 100 µM. For the same molecule, the TGI (HCC-2998 colon) was greater than 100 µM, the TGI (SNB-19 CNS) was greater than 100 µM and the TGI (SK-MEL-5 melanoma) was greater than 100 µM.

For `CCSc1nn(-c2c3ccccc3nc3ccccc23)c(=S)s1`, the TGI (T-47D breast) was greater than 100 µM, the TGI (ACHN renal) was greater than 100 µM and the TGI (DU-145 prostate) was greater than 100 µM. It also gave a TGI (MDA-N) greater than 100 µM, a TGI (SF-539 CNS) greater than 100 µM and a TGI (MDA-MB-231 breast) greater than 100 µM. The TGI (HCC-2998 colon) was greater than 100 µM, the TGI (SNB-19 CNS) was greater than 100 µM and the TGI (SK-MEL-5 melanoma) was greater than 100 µM.

Work on `C[C@@H](CC(O)C(O)C(C)(C)O)C1CCC23CC12CCC1[C@@]2(C)CCC(=O)C(C)(C)C2CC(OC2OC(CO)C(O)C(O)C2O)[C@]13C` (stereo partly specified) yielded a TGI (T-47D breast) greater than 10 µM, a TGI (ACHN renal) greater than 10 µM and a TGI (DU-145 prostate) greater than 10 µM. It also gave a TGI (MDA-N) greater than 10 µM, a TGI (SF-539 CNS) greater than 10 µM and a TGI (MDA-MB-231 breast) greater than 10 µM. For the same molecule, the TGI (HCC-2998 colon) was greater than 10 µM, the TGI (SNB-19 CNS) was greater than 10 µM and the TGI (SK-MEL-5 melanoma) was greater than 10 µM.

`Clc1cccc(Cl)c1C1ON=C(c2ccccc2)N1C12CC3CC(CC(C3)C1)C2` (stereo unspecified) was tested, and the TGI (T-47D breast) was greater than 100 µM, the TGI (ACHN renal) was greater than 100 µM and the TGI (DU-145 prostate) was greater than 100 µM. The TGI (MDA-N) was greater than 100 µM, the TGI (SF-539 CNS) was greater than 100 µM and the TGI (MDA-MB-231 breast) was greater than 100 µM. It also gave a TGI (HCC-2998 colon) greater than 100 µM, a TGI (SNB-19 CNS) greater than 100 µM and a TGI (SK-MEL-5 melanoma) of 12.1 µM.

For `NC(=O)CN1CCN(c2nc(N3CCCC3)c3nc(Cl)c(NCc4ccccc4)nc3n2)CC1`, the TGI (T-47D breast) was 20.7 µM, the TGI (ACHN renal) was 32.2 µM and the TGI (DU-145 prostate) was 28.8 µM. It also gave a TGI (MDA-N) of 16.4 µM, a TGI (SF-539 CNS) of 17.5 µM and a TGI (MDA-MB-231 breast) of 20.6 µM. The TGI (HCC-2998 colon) was 15.4 µM, the TGI (SNB-19 CNS) was 18.9 µM and the TGI (SK-MEL-5 melanoma) was 15.7 µM.

Work on `COc1ccc(/C=C(\C#N)c2nc(-c3cc4ccccc4oc3=O)cs2)cc1` yielded a TGI (T-47D breast) greater than 100 µM, a TGI (ACHN renal) of 42.2 µM and a TGI (DU-145 prostate) greater than 100 µM. The TGI (MDA-N) was greater than 100 µM, the TGI (SF-539 CNS) was 54.9 µM and the TGI (MDA-MB-231 breast) was 31 µM. It also gave a TGI (HCC-2998 colon) greater than 100 µM, a TGI (SNB-19 CNS) of 34.9 µM and a TGI (SK-MEL-5 melanoma) greater than 100 µM.

`CN(CCc1ccccn1)C(=S)N/N=C/c1ccccn1` showed a TGI (T-47D breast) of 22.2 µM, a TGI (ACHN renal) of 1.41 µM and a TGI (DU-145 prostate) greater than 100 µM. The TGI (MDA-N) was 37.4 µM, the TGI (SF-539 CNS) was 0.365 µM and the TGI (MDA-MB-231 breast) was 0.982 µM. The TGI (HCC-2998 colon) was 37.7 µM, the TGI (SNB-19 CNS) was greater than 100 µM and the TGI (SK-MEL-5 melanoma) was 0.902 µM.

With `NC(Cc1ccccc1)C(=O)O` (stereo unspecified) the TGI (T-47D breast) was greater than 100 µM, the TGI (ACHN renal) was greater than 100 µM and the TGI (DU-145 prostate) was greater than 100 µM. The TGI (MDA-N) was greater than 100 µM, the TGI (SF-539 CNS) was greater than 100 µM and the TGI (MDA-MB-231 breast) was greater than 100 µM. For the same molecule, the TGI (HCC-2998 colon) was greater than 100 µM, the TGI (SNB-19 CNS) was greater than 100 µM and the TGI (SK-MEL-5 melanoma) was greater than 100 µM.

Work on `Cc1ccc2c3ccc4c(c3n(C)c2c1)C(=O)C=CC4=O` yielded a TGI (T-47D breast) of 5.92 µM, a TGI (ACHN renal) greater than 10 µM and a TGI (DU-145 prostate) greater than 10 µM. For the same molecule, the TGI (MDA-N) was greater than 10 µM, the TGI (SF-539 CNS) was greater than 9.21 µM and the TGI (MDA-MB-231 breast) was greater than 10 µM. For the same molecule, the TGI (HCC-2998 colon) was greater than 10 µM, the TGI (SNB-19 CNS) was greater than 10 µM and the TGI (SK-MEL-5 melanoma) was greater than 10 µM.

`CCOC(=O)c1c(C)n(CCN2CCN(C)CC2)c2ccc(OC)cc12` was tested, and the TGI (T-47D breast) was greater than 100 µM, the TGI (ACHN renal) was greater than 100 µM and the TGI (DU-145 prostate) was greater than 100 µM. For the same molecule, the TGI (MDA-N) was 39.4 µM, the TGI (SF-539 CNS) was 87.1 µM and the TGI (MDA-MB-231 breast) was greater than 100 µM. For the same molecule, the TGI (HCC-2998 colon) was 30.7 µM, the TGI (SNB-19 CNS) was greater than 100 µM and the TGI (SK-MEL-5 melanoma) was 30.8 µM.

Molecule `CCCNC(=O)Cn1c(-c2ccccc2)cc2ccccc21` has a TGI (T-47D breast) greater than 100 µM, a TGI (ACHN renal) greater than 100 µM and a TGI (DU-145 prostate) greater than 100 µM. For the same molecule, the TGI (MDA-N) was greater than 100 µM, the TGI (SF-539 CNS) was greater than 100 µM and the TGI (MDA-MB-231 breast) was greater than 100 µM. It also gave a TGI (HCC-2998 colon) greater than 100 µM, a TGI (SNB-19 CNS) greater than 100 µM and a TGI (SK-MEL-5 melanoma) greater than 100 µM.

`CC(=O)N/N=C1\NN(C(C)=O)C2(S1)C(=O)Nc1ccccc12` (stereo unspecified) showed a TGI (T-47D breast) greater than 100 µM, a TGI (ACHN renal) greater than 100 µM and a TGI (DU-145 prostate) greater than 100 µM. The TGI (MDA-N) was greater than 100 µM, the TGI (SF-539 CNS) was greater than 100 µM and the TGI (MDA-MB-231 breast) was greater than 100 µM. The TGI (HCC-2998 colon) was greater than 100 µM, the TGI (SNB-19 CNS) was greater than 100 µM and the TGI (SK-MEL-5 melanoma) was greater than 100 µM.

In the case of `CC1(C)CN=C(c2ccc3ccccc3c2O)N1`, the TGI (T-47D breast) was greater than 100 µM, the TGI (ACHN renal) was greater than 100 µM and the TGI (DU-145 prostate) was greater than 100 µM. It also gave a TGI (MDA-N) greater than 100 µM, a TGI (SF-539 CNS) greater than 100 µM and a TGI (MDA-MB-231 breast) greater than 100 µM. The TGI (HCC-2998 colon) was greater than 100 µM, the TGI (SNB-19 CNS) was greater than 100 µM and the TGI (SK-MEL-5 melanoma) was greater than 100 µM.

In the case of `COc1ccc(C2=C(N)c3ccccc3C2=O)cc1`, the TGI (T-47D breast) was greater than 100 µM, the TGI (ACHN renal) was greater than 100 µM and the TGI (DU-145 prostate) was greater than 100 µM. It also gave a TGI (MDA-N) greater than 100 µM, a TGI (SF-539 CNS) greater than 100 µM and a TGI (MDA-MB-231 breast) greater than 100 µM. For the same molecule, the TGI (HCC-2998 colon) was greater than 100 µM, the TGI (SNB-19 CNS) was 64.3 µM and the TGI (SK-MEL-5 melanoma) was greater than 100 µM.

`CCCCCCCCCCCOCCC1C(C(C)OCCN2CCCC2)OC2OC(C)(C)OC21` (stereo unspecified) gave a TGI (T-47D breast) of 4.8 µM, a TGI (ACHN renal) of 10.8 µM and a TGI (DU-145 prostate) of 11.3 µM. It also gave a TGI (MDA-N) of 3.52 µM, a TGI (SF-539 CNS) of 3.68 µM and a TGI (MDA-MB-231 breast) of 3.97 µM. It also gave a TGI (HCC-2998 colon) of 4.83 µM, a TGI (SNB-19 CNS) of 13.7 µM and a TGI (SK-MEL-5 melanoma) of 3.22 µM.

Molecule `Cc1cccc(/C=N/NC(=S)NC(C)(C)C)n1` has a TGI (T-47D breast) greater than 100 µM, a TGI (ACHN renal) greater than 100 µM and a TGI (DU-145 prostate) greater than 100 µM. For the same molecule, the TGI (MDA-N) was greater than 100 µM, the TGI (SF-539 CNS) was greater than 100 µM and the TGI (MDA-MB-231 breast) was greater than 100 µM. It also gave a TGI (HCC-2998 colon) greater than 100 µM, a TGI (SNB-19 CNS) greater than 100 µM and a TGI (SK-MEL-5 melanoma) greater than 100 µM.

In the case of `COC(=O)[C@]12CCC(=O)N1[C@H](C(=O)O)Cc1c2[nH]c2ccccc12`, the TGI (T-47D breast) was greater than 100 µM, the TGI (ACHN renal) was greater than 100 µM and the TGI (DU-145 prostate) was greater than 100 µM. It also gave a TGI (MDA-N) greater than 100 µM, a TGI (SF-539 CNS) greater than 100 µM and a TGI (MDA-MB-231 breast) greater than 100 µM. For the same molecule, the TGI (HCC-2998 colon) was greater than 100 µM, the TGI (SNB-19 CNS) was greater than 100 µM and the TGI (SK-MEL-5 melanoma) was greater than 100 µM.

With `CN(C)CCCN1C(=O)N(CCCN(C)C)c2c3cc(O)ccc3nc3c([N+](=O)[O-])ccc1c23` the TGI (T-47D breast) was 80.2 µM, the TGI (ACHN renal) was 62.6 µM and the TGI (DU-145 prostate) was 64 µM. For the same molecule, the TGI (MDA-N) was greater than 100 µM, the TGI (SF-539 CNS) was 35.5 µM and the TGI (MDA-MB-231 breast) was 28.3 µM. It also gave a TGI (HCC-2998 colon) of 26.8 µM, a TGI (SNB-19 CNS) of 23.8 µM and a TGI (SK-MEL-5 melanoma) of 30.4 µM.
